What was measured:
Type in all cases: cell-based
[1] = system: HCT116 cells; assay: 2-Deoxy-Glucose (2-DG) uptake assay in HCT116 cells; conditions: Homo sapiens, HCT-116, 0.5 h, 1 mM 2-DG, 30 min, read-out: IC50 determined for the inhibition of 2-DG uptake in HCT116 cells
Method: The 2-DG uptake assay was carried out as described by Yamamoto N. et al. with slight modifications ([…]). Briefly, 40,000 HCT116 or CHO cells were seeded in black, clear bottom 96-well plates and allowed to attach overnight. Cells were incubated with compounds or DMSO and 1 mM 2-DG in glucose-free KRB buffer (20 mM HEPES, 5 mM KH2PO4, 1 mM MgSO4, 1 mM CaCl2), 136 mM NaCl, 0.1% BSA, pH 7.4) for 30 min. In the case of GLUT-4 transfected cells, Insulin (100 μg/mL) was added to the buffer. Cells were then washed and lysed in 0.06 M HCl and 1% CHAPS for 15 min at 65° C. while shaking. The amount of 2-DG in the lysate was determined by means of enzyme-coupled assay. For this 6.4 U/mL glucose-6-phosphate dehydrogenase, 0.2 U/mL diaphorase, 0.1 mM NADP^+ and 0.025 mg/mL resazurin were added to the lysates. Resorufin fluorescence was determined as a measure of 2-DG uptake at ex/em 535/590 nm with a Tecan Infinite M200 plate reader (Tecan). Blank values were subtracted from all readings and values were normalized to the DMSO control.

[2] = molecular target: T1, GLUT1 (Homo sapiens, UniProt P11166); assay: GLUT1 transporter activity assay (2-DG uptake) in DLD1 cells; conditions: DLD1 cell line; read-out: GLUT1 inhibitory activity (IC50)
T1 construct: host or cells: DLD-1 (DLD1) cells
T1 sequence (P11166 1-492): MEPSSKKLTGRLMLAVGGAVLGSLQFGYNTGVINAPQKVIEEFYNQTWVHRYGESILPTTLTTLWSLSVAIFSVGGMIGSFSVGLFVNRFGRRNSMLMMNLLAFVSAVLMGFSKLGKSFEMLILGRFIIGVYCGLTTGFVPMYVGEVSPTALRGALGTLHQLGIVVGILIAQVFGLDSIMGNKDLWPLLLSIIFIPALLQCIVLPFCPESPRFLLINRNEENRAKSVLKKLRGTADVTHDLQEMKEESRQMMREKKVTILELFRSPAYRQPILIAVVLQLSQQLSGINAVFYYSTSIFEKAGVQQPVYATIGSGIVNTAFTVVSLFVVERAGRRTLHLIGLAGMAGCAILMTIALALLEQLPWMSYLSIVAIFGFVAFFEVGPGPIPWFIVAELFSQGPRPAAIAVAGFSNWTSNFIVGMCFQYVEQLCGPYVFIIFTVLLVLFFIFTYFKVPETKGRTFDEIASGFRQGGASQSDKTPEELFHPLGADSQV
Method in brief: (§1)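 DLD1 cells (GLUT1) or DLD-1-GLUT1−/− cells (GLUT3) in glucose-free RPMI with 1% FCS, treated with compound plus 1 mM 2-DG for 30 min. Lysate 2-DG measured by G6PDH/diaphorase-coupled resazurin-to-resorufin fluorescence (ex/em 535/590 nm), blank-subtracted and normalized to DMSO control.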

[3] = molecular target: T2, GLUT3 (Homo sapiens, UniProt P11169); assay: GLUT3 transporter activity assay (2-DG uptake) in DLD-1-GLUT1-/- cells; conditions: DLD-1-GLUT1-/- cell line; read-out: GLUT3 inhibitory activity (IC50)
T2 construct: host or cells: DLD-1-GLUT1(-/-) cells
T2 sequence (P11169 1-496): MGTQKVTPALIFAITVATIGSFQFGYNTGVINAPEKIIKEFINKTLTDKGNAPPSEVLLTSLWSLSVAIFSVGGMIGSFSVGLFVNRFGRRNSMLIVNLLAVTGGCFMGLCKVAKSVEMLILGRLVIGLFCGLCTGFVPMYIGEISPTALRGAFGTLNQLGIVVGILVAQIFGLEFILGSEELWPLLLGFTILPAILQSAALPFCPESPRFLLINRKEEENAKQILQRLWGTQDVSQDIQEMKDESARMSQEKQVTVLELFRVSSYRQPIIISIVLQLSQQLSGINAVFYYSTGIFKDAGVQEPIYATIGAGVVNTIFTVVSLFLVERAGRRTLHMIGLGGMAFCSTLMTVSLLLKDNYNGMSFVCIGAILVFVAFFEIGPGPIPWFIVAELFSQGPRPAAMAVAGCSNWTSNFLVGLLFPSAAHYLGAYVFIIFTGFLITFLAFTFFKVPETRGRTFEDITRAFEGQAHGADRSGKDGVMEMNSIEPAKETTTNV
Method in brief: as §1

[4] = molecular target: T3, GLUT4 (Homo sapiens, UniProt P14672); assay: GLUT4 transporter activity assay (2-DG uptake) in CHO-hGLUT4 cells; conditions: CHO-hGLUT4 cell line; read-out: GLUT4 inhibitory activity (IC50)
T3 sequence (P14672 1-509): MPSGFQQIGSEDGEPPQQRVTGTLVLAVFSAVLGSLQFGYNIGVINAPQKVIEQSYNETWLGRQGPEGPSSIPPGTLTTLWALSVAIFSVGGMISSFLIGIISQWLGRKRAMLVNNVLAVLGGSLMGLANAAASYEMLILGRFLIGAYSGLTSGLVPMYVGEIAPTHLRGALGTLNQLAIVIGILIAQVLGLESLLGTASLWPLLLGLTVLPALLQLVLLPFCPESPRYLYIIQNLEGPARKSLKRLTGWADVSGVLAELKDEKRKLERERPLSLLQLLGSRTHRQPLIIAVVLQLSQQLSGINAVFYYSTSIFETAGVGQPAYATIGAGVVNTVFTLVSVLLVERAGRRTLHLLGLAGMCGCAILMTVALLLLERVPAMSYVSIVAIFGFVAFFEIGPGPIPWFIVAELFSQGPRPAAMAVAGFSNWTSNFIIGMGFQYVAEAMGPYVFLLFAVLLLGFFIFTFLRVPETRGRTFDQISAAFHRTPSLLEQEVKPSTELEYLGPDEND
Method in brief: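 Stable CHOK1 clone overexpressing human GLUT4 (7,000 cells/well), in glucose-free RPMI with 1% FCS, incubated with compound and 1 mM 2-DG for 30 min. After acid/CHAPS lysis at 65 °C, 2-DG quantified by G6PDH/diaphorase-coupled resazurin-to-resorufin fluorescence (ex/em 535/590 nm). Blank-subtracted, normalised to DMSO.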

IC50 [1] | IC50 [2] | IC50 [3] | IC50 [4] | Compound
≤ 5000 nM | ≤ 300 nM | ≤ 300 nM | 4000 to 10000 nM | Cc1ccc(CCNC(=O)c2cccc(N3C(=O)NC4CC3(C)Oc3c(OCc5ccc(C#N)cc5)cccc34)c2)cc1 (centres unmarked) [Compound A05, 3-(10-((4-Cyanobenzyl)oxy)-2-methyl-4-oxo-5,6-dihydro-2H-2,6-methanobenzo[g][1,3,5]oxadiazocin-3(4H)-yl)-N-(4-methylphenethyl)benzamide]
≤ 5000 nM | 300 to 1000 nM | 300 to 1000 nM | 4000 to 10000 nM | Cc1ccc(CCNC(=O)c2cccc(N3C(=O)NC4CC3(C)Oc3c(OCc5ccco5)cccc34)c2)cc1 (centres unmarked) [Compound A07, 3-(10-(Furan-2-ylmethoxy)-2-methyl-4-oxo-5,6-dihydro-2H-2,6-methanobenzo[g][1,3,5]oxadiazocin-3(4H)-yl)-N-(4-methylphenethyl)benzamide]

Source: patent publication US20210198269A1, “INHIBITORS OF GLUCOSE TRANSPORTERS (GLUTs)” (LEAD DISCOVERY CENTER GMBH, priority 2018, published 2021)
